According to EP4603105A1, “PHARMACEUTICAL COMPOSITION CONTAINING CYCLIC COMPOUND HAVING SELECTIVE KRAS INHIBITORY EFFECT AGAINST HRAS AND NRAS” (CHUGAI SEIYAKU KABUSHIKI KAISHA, priority 2022, dated 2024):
*1 amine or outer side, *2 acyl side, *3 side chain or, on linkers, in order; H or OH if unused. Where a SMILES comes first, the peptide text is derived from it. Bridges are numbered along the chain shown (N, C = ends). [ ]: non-standard residue; d: D form. The star is where a group is joined. ξ: configuration not given here. hPhe(3-Cl-4-CF3) = N[C@@H](CCc1ccc(C(F)(F)F)c(Cl)c1)C(=O)O; NPrPhe(4-CF3) = CCCN[C@@H](Cc1ccc(C(F)(F)F)cc1)C(=O)O; X31 = C=CCN([C@@H](Cc1ccccc1)C(=O)[*:2])[*:1]; NMeGly(cPent) = CN[C@H](C(=O)O)C1CCCC1; Pro(4,4-F2) = O=C(O)[C@@H]1CC(F)(F)CN1; NMeNle(5-ene) = C=CCC[C@H](NC)C(=O)O; dIle(3ξ) = CCC(C)[C@@H](N)C(=O)O; NMeD = CN[C@@H](CC(=O)O)C(=O)O; NMeL = CN[C@@H](CC(C)C)C(=O)O; Morpholide = C1CN(*)CCO1; Ac5c = NC1(C(=O)O)CCCC1; Ac4c = NC1(C(=O)O)CCC1; Sar = CNCC(=O)O

How the values were obtained:
[1] = biological target: GDP-bound NRAS wild-type protein (Homo sapiens, UniProt P01111); test: Binding to NRAS by surface plasmon resonance (SPR), KD and KD ratio to KRAS
Sequence of GDP-bound NRAS wild-type protein (P01111 whole entry): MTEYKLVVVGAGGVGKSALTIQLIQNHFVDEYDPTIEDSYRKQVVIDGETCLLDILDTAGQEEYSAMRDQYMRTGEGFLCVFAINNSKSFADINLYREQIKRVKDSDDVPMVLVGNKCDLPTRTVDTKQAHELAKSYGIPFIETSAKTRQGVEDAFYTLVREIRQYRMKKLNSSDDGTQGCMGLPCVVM
How it was run: (§1)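 Recombinant RAS proteins bearing a biotinylated Avi tag and loaded with GDP served as the captured ligand, recaptured fresh every cycle. Binding responses were referenced to an uncoated surface and a buffer-only blank cycle. Dissociation constants were obtained by 1:1 model fitting at 30°C.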

[2] = biological target: HRAS wild-type protein (Homo sapiens, UniProt P01112); test: Binding to HRAS by surface plasmon resonance (SPR), KD and KD ratio to KRAS
Sequence of HRAS wild-type protein (P01112 whole entry): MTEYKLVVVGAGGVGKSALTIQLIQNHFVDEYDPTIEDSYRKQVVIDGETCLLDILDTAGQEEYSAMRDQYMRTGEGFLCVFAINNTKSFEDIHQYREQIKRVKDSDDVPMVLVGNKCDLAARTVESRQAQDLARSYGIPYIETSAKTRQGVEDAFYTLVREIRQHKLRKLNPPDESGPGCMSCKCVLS
How it was run: as §1

[3] = test system: human lung cancer strain NCI-H441; type: cell-based
How it was run: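 Signal came from […] measured per well once the reagent was added. Beforehand, cells were cultured at 37°C and 5% carbon dioxide on a compound series serially diluted in dimethyl sulfoxide.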

[4] = ratio of the KD value with respect to GDP-bound NRAS wild-type protein to the KD value with respect to KRAS
[5] = ratio of the KD value with respect to HRAS wild-type protein to the KD value with respect to KRAS
[6] = ratio of KD for GDP-bound NRAS wild-type protein to KD for KRAS
[7] = ratio of KD for HRAS wild-type protein to KD for KRAS

Compound | IC50 [3] | NRAS /KRAS [1, 4] | HRAS /KRAS [2, 5] | NRAS /KRAS [1, 6] | HRAS /KRAS [2, 7] | NRAS /KRAS ([1]; ratio of KD value for GDP-bound NRAS wild-type protein to KD value for KRAS (SPR)) | HRAS /KRAS ([2]; ratio of KD value for HRAS wild-type protein to KD value for KRAS (SPR))
C=CCC[C@H]1C(=O)N(CC=C)[C@@H](Cc2ccccc2)C(=O)N(C)CC(=O)N[C@@H](CCc2ccc(C(F)(F)F)c(Cl)c2)C(=O)N2CCC[C@H]2C(=O)NC2(CCCC2)C(=O)N(C)[C@@H](C2CCCC2)C(=O)N(C)[C@H](C(=O)N2CCOCC2)CC(=O)N(C)[C@@H](CC(C)C)C(=O)N[C@H](C(C)CC)C(=O)N(C)CC(=O)N1C (stereo partly drawn) [PP0599] ([NMeL][dIle(3ξ)][Sar][NMeNle(5-ene)][X31][Sar][hPhe(3-Cl-4-CF3)]P[Ac5c][NMeGly(cPent)][NMeD]-Morpholide; lactam N-11) | 2800 nM | C (A compound having a KD ratio of 0.1 or more and less than 3 is denoted as C) | B (a compound having 3 or more and less than 10 is denoted as B) |  |  |  | 
CCC[C@H]1C(=O)N[C@@H]([C@@H](C)CC)C(=O)N(C)CC(=O)N(C)[C@H]2C/C=C\CCN(C2=O)[C@@H](Cc2ccc(C)cc2)C(=O)N(C)CC(=O)N[C@@H](CCc2ccc3sc(C)c(C)c3c2)C(=O)N2C[C@H](OCC)C[C@H]2C(=O)NC2(CC(C)(C)C2)C(=O)N(C)[C@@H](C(CC)CC)C(=O)N(C)[C@H](C(=O)N(C)C)CC(=O)N1C [PP2902] | 56.3 nM |  |  | AA (a compound having 20 or more is denoted as AA) | A (a compound having 10 or more and less than 20 is denoted as A) |  | 
CCO[C@@H]1C[C@H]2C(=O)N(C)C3(CCC3)C(=O)N(C)[C@@H](C(CC)CC)C(=O)N(C)[C@H](C(=O)N(C)C)CC(=O)N(C)[C@@H](COC)C(=O)N[C@@H]([C@@H](C)CC)C(=O)N(C3CC3)CC(=O)N(C)[C@H]3C/C=C\CCN(C3=O)[C@@H](CC3CCCCC3)C(=O)N(C)CC(=O)N[C@@H](CCc3ccc(C(F)(F)F)c(OC)c3)C(=O)N2C1 [PP2339] | 59.3 nM | A (a compound having 10 or more and less than 20 is denoted as A) | A (a compound having 10 or more and less than 20 is denoted as A) |  |  |  | 
CC[C@H](C)[C@@H]1NC(=O)[C@H](CC(C)C)N(C)C(=O)C[C@@H](C(=O)N2CCOCC2)N(C)C(=O)[C@H](C2CCCC2)N(C)C(=O)C2(CCC2)NC(=O)[C@@H]2C[C@@H](OCC3CC3)CN2C(=O)[C@H](CCc2cc(F)c(C(F)(F)F)c(F)c2)NC(=O)CN(C)C(=O)[C@H](Cc2ccc(C(F)(F)F)cc2)N2CCCCC[C@@H](C2=O)N(C)C(=O)CN(C)C1=O [PP1005] | 275 nM |  |  | A (a compound having 10 or more and less than 20 is denoted as A) | A (a compound having 10 or more and less than 20 is denoted as A) |  | 

Now those with a lower IC50 [3], led by results:

IC50 [3] | Compound | NRAS /KRAS [1, 4] | HRAS /KRAS [2, 5] | NRAS /KRAS [1, 6] | HRAS /KRAS [2, 7] | NRAS /KRAS ([1]; ratio of KD value for GDP-bound NRAS wild-type protein to KD value for KRAS (SPR)) | HRAS /KRAS ([2]; ratio of KD value for HRAS wild-type protein to KD value for KRAS (SPR))
15.6 nM | CC[C@H](C)[C@@H]1NC(=O)[C@H](CC(F)F)N(C)C(=O)C[C@@H](C(=O)N(C)CC)N(C)C(=O)[C@H](C2CCCC2)N(C)C(=O)C2(CC(C)(C)C2)NC(=O)[C@@H]2C[C@@H](C)CN2C(=O)[C@H](CCc2ccc(C(F)(F)F)c(Cl)c2)NC(=O)CN(C)C(=O)[C@H](Cc2ccc(C)cc2)N2CC/C=C\C[C@@H](C2=O)N(C)C(=O)CN(C)C1=O [PP1837] |  |  |  |  | A (a compound having 10 or more and less than 20 is denoted as A) | A (a compound having 10 or more and less than 20 is denoted as A)
8.9 nM | CCO[C@@H]1C[C@H]2C(=O)NC3(CC(C)(C)C3)C(=O)N(C)[C@@H](C(CC)CC)C(=O)N(C)[C@H](C(=O)N(C)C)CC(=O)N(C)[C@@H](CC3CC3)C(=O)N[C@@H]([C@@H](C)CC)C(=O)N(C)CC(=O)N(C)[C@H]3C/C=C\CCN(C3=O)[C@@H](Cc3ccc(C(F)(F)F)cc3)C(=O)N(C)CC(=O)N[C@@H](CCc3cc(F)c(C(F)(F)F)c(F)c3)C(=O)N2C1 [PP2119] | A (a compound having 10 or more and less than 20 is denoted as A) | B (a compound having 3 or more and less than 10 is denoted as B) |  |  |  | 
1.9 nM | CCCN1C(=O)CN(C)C(=O)CN(C)C(=O)[C@H]([C@@H](C)CC)NC(=O)[C@H](CC(C)C)N(C)C(=O)C[C@@H](C(=O)N2CCOCC2)N(C)C(=O)[C@H](C2CCCC2)N(C)C(=O)C2(CCC2)NC(=O)[C@@H]2CC(F)(F)CN2C(=O)[C@H](CCc2ccc(C(F)(F)F)c(Cl)c2)NC(=O)CN(C)C(=O)[C@@H]1Cc1ccc(C(F)(F)F)cc1 [PP0207] ([NMeL]I[Sar][Sar][NPrPhe(4-CF3)][Sar][hPhe(3-Cl-4-CF3)][Pro(4,4-F2)][Ac4c][NMeGly(cPent)][NMeD]-Morpholide; lactam N-11) |  |  | B (a compound having 3 or more and less than 10 is denoted as B) | C (A compound having a KD ratio of 0.1 or more and less than 3 is denoted as C) |  | 
